Assay results: US20070286898A1, “Intracellular Drug Delivery Improving Liposome” (ASTELLAS PHARMA INC., priority 2004, published 2007)

Test system: Ehrlich's ascites carcinoma cell
Experiment: Cell-killing effect upon Ehrlich's ascites carcinoma cell using WST
Assay type: cell-based
Conditions: 1×10^6 cells, read-out: IC50 (doxorubicin concentration by which 50% of cell-killing effect is obtained)
Description: The preparations prepared in Examples 1 and 2 and Comparative Examples 1, 2 and 3 were adjusted to various concentrations, and the resulting liquids were added to Ehrlich's ascites carcinoma cell (1×10^6 cells) to examine their cell-killing effects using WST.
Based on the results of plotting a relationship between the doxorubicin concentration in each preparation and its cell-killing effect, the doxorubicin concentration by which 50% of cell-killing effect is obtained was calculated (Table 1). By this, it was shown that the liposome preparations of the present invention show significant pharmacological effect in comparison with Comparative Examples.

SMILES: COc1cccc2c1C(=O)c1c(O)c3c(c(O)c1C2=O)C[C@@](O)(C(=O)CO)C[C@@H]3O[C@H]1C[C@H](N)[C@H](O)[C@H](C)O1 [Comparative Example 3, doxorubicin]
- IC50: 3.45 µM
